Measured values taken from ChEMBL document CHEMBL1201862, “PubChem BioAssay data set” (2004).
Calls of active or inactive are those of the source.

Key:
Cytochrome P450 2D6 = Cytochrome P450 2D6 (Homo sapiens, UniProt P10635);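 note: CYP2D6 member of a cytochrome P450 panel assay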
[1] = Luminescence Cell-Based Dose Retest to Confirm Inhibitors of Cancer Stem Cells. [Related pubchem assays (depositor defined):AID2717, AID2721]; assay type: functional; conditions: Homo sapiens
[2] = inhibitors of intracellular T. cruzi replication, confirmation, NIH3T3 host cells, beta-gal luminescence (AID 2044); assay type: functional, cell-based;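 note: intracellular parasites grown in NIH/3T3 mouse fibroblasts as host cells; luminescent beta-galactosidase reporter signal from transgenic T. cruzi replicating inside host cells; inhibitors lower the luminescence signal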
INS1 = assay: beta cell apoptosis inhibitors, cytokine rescue, dose response, luminescence, retest (AID 449756); assay type: functional, cell-based; conditions: Rattus norvegicus;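 note: cell death triggered by IL-1 beta plus TNF-alpha plus IFN-gamma mixture; protective hits raise ATP signal compared with cytokine alone wells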
[3] = cytotoxicity toward NIH3T3 fibroblasts, dose response, counter-screen, cell-based, ATP luminescence, mouse fibroblasts (AID 2010); assay type: functional;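 note: cells exposed to compound for about 90 hours before reading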
Cytochrome P450 2C19 = Cytochrome P450 2C19 (Homo sapiens, UniProt P33261); assay: Cytochrome panel assay with activity outcomes. Panel member name: p450-cyp2c19 Compounds with AC50 equal or less than 10 uM are considered active; assay type: functional
Cytochrome P450 3A4 = Cytochrome P450 3A4 (Homo sapiens, UniProt P08684);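 note: CYP3A4 tested as one member of a cytochrome P450 panel screen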
Chain of Cytochrome P450 3A4 (P08684 whole entry): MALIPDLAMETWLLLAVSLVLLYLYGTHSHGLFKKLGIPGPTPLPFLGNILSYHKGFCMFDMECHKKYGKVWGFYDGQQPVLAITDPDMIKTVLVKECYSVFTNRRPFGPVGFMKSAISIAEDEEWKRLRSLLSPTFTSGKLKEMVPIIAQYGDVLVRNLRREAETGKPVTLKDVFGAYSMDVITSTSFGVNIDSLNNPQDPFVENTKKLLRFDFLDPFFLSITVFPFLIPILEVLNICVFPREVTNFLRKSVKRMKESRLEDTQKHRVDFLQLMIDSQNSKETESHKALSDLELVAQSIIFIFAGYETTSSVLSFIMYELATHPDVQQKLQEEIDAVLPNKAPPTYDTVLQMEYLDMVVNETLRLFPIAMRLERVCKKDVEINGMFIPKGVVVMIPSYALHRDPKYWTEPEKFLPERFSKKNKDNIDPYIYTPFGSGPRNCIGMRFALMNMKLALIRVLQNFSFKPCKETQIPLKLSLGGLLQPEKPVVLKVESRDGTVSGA

Chain of Cytochrome P450 2D6 (P10635 whole entry): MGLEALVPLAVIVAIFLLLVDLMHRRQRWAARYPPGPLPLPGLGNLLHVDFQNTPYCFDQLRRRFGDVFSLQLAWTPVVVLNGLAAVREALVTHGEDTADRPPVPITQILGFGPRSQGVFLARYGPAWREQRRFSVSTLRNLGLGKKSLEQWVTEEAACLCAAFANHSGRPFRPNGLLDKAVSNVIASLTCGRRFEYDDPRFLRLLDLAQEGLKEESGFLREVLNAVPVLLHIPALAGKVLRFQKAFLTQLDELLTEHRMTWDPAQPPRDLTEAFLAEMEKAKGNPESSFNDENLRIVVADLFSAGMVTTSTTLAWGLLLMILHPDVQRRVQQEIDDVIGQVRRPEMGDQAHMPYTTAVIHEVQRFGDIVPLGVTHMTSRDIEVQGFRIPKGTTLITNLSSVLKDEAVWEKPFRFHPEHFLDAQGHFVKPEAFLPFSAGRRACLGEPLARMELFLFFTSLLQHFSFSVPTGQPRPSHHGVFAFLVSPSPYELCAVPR
Chain of Cytochrome P450 2C19 (P33261 whole entry): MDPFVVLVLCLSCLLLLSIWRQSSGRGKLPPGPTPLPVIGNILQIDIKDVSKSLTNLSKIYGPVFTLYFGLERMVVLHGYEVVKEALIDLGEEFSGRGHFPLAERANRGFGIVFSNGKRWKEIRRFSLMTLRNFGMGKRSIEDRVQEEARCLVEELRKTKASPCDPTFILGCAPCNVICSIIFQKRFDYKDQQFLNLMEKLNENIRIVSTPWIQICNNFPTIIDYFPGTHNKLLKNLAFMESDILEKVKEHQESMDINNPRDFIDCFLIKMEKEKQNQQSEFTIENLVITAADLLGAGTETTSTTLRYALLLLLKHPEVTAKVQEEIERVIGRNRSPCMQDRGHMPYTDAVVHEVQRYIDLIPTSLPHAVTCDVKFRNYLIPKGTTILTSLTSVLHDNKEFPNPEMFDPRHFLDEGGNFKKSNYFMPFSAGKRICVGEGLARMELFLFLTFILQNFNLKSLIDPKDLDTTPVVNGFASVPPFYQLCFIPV

Question: For `O=C1CCCC2=C1C(c1ccc(OS(=O)(=O)c3ccc(Cl)cc3)cc1)C1=C(CCCC1=O)O2`, which AC50 (Cytochrome P450 2D6) is on record?
Answer: 12.6 µM (inconclusive)

Question: For `c1ccc(-c2cccc(N3CCC4(CCNCC4)CC3)c2)cc1`, which AC50 (Cytochrome P450 2D6) is on record?
Answer: 39.8 µM (inconclusive)

Question: Which AC50 [1] does the source give for `NC(=O)CC(NC(=O)c1ccc(Br)cc1)c1ccc(N2CCCCCCC2)c([N+](=O)[O-])c1` (configuration not stated) here?
Answer: 8.2 µM (active)

Question: Which EC50 [2] does the source give for `Cc1ccc(NC(=O)NCC2CCN(Cc3cccc(Cl)c3)CC2)cc1Cl` here?
Answer: 1.03 µM (active)

Question: And the AC50 (INS1)?
Answer: 12.8 µM (active)

Question: And the AC50 [1]?
Answer: 8.54 µM (active)

Question: And the EC50 [3]?
Answer: > 60 µM (not active)

Question: For `CCCCCCOc1ccc(OC(=O)c2cccnc2)cc1`, which AC50 [1] is on record?
Answer: 3.33 µM (active)

Question: Which EC50 [2] does the source give for `COc1ccc(CN2CCN(C(=O)C3CCC(CNS(=O)(=O)c4ccc(C)cc4)CC3)CC2)c(OC)c1OC` (configuration not stated) here?
Answer: 0.404 µM (active)

Question: And the EC50 [3]?
Answer: > 60 µM (not active)

Question: With `COc1ccc(C(=O)c2c(C)c3ccccc3n2CC(O)CNC(C)C)cc1` (configuration not stated) as the compound, how does the AC50 (INS1) read?
Answer: 30.1 µM (active)

Question: For `Oc1ccccc1CNCc1ccccc1O`, which AC50 (Cytochrome P450 2D6) is on record?
Answer: 3.16 µM (inconclusive)

Question: Which EC50 [2] does the source give for `O=c1c2ccccc2[nH]c(=S)n1CCCN1CCC(Cc2ccccc2)CC1` here?
Answer: 0.161 µM (active)

Question: And the EC50 [3]?
Answer: > 60 µM (not active)

Question: Which AC50 (Cytochrome P450 2C19; read-out: AC50) does the source give for `COc1ccc(S(=O)(=O)N2CCC(N3CCCCC3)CC2)cc1` here?
Answer: 39.8 µM (inconclusive)

Question: For `CN(C)CCCn1c2c(c(SCC(=O)Nc3cccc4ccccc34)nc1=O)CCC2`, which EC50 [2] is on record?
Answer: 2.04 µM (active)

Question: What about the EC50 [3] of the same compound?
Answer: > 60 µM (not active)

Question: With `CC[C@H]1CN2CCc3cc(OC)c(OC)cc3[C@H]2C[C@@H]1C[C@H]1NCCc2c1[nH]c1ccc(O)cc21` as the compound, how does the AC50 (Cytochrome P450 2D6) read?
Answer: 3.98 µM (inconclusive)

Question: With `CCC1CCCCN1Cc1cc(OC)c(O)c([N+](=O)[O-])c1` (configuration not stated) as the compound, how does the AC50 (Cytochrome P450 2D6) read?
Answer: 14.1 µM (inconclusive)

Question: For `c1ccc(Nc2cccc3c(Nc4ccccc4)cccc23)cc1`, which EC50 [2] is on record?
Answer: 1.14 µM (active)

Question: And the EC50 [3]?
Answer: > 60 µM (not active)

Question: Which AC50 (Cytochrome P450 3A4) does the source give for `CCCCCc1nc2c(C#N)c(-c3ccc(Cl)cc3)ccn2n1` here?
Answer: 25.1 µM (inconclusive)

Question: With `O=C(Nc1ncc(S(=O)(=O)c2ccc([N+](=O)[O-])cc2)s1)c1ccc2ccccc2c1` as the compound, how does the EC50 [2] read?
Answer: 0.128 µM (active)

Question: What about the AC50 [1] of the same compound?
Answer: 2.11 µM (active)

Question: And the EC50 [3]?
Answer: > 60 µM (not active)

Question: With `COCCN1CN=C(Nc2nc3ccccc3s2)NC1` as the compound, how does the AC50 (Cytochrome P450 2D6) read?
Answer: 11.2 µM (inconclusive)

Question: With `Cn1nnnc1SCCNCc1cccc2ccccc12` as the compound, how does the EC50 [2] read?
Answer: > 60 µM (not active)

Question: What about the EC50 [3] of the same compound?
Answer: > 60 µM (not active)

Question: Which AC50 (Cytochrome P450 2C19; read-out: AC50) does the source give for `CN(C(=O)COc1cccc(Br)c1)C1CCS(=O)(=O)C1` (configuration not stated) here?
Answer: 22.4 µM (inconclusive)

Question: For `COc1cc(C)ccc1OCCOc1cc(C)ccc1Cl`, which AC50 (Cytochrome P450 2C19; read-out: AC50) is on record?
Answer: 5.62 µM (inconclusive)

Question: Which AC50 (INS1) does the source give for `CNC(=S)N(Cc1cccs1)Cc1cc2cc(OC)c(OC)cc2nc1O` here?
Answer: 99.3 µM (active)

Question: Which results are given for `COCCCn1c(=N)c(C(N)=S)cc2c(=O)n3cccc(C)c3nc21`?
Answer: EC50 [2]: 1.34 µM (active); EC50 [3]: > 60 µM (not active)

Question: With `NC1=NC(Nc2ccc(F)cc2F)=NC2(CCCCC2)N1` as the compound, how does the AC50 (Cytochrome P450 2C19; read-out: AC50) read?
Answer: 3.16 µM (inconclusive)

Question: Which AC50 (Cytochrome P450 2C19; read-out: AC50) does the source give for `CC(=O)NCCNc1nc(-c2ccc3c(c2)OCO3)nc2ccccc12` here?
Answer: 39.8 µM (inconclusive)

Question: Which AC50 [1] does the source give for `Cc1ccc(OCC(O)Cn2c3ccccc3c3ccccc32)cc1` (configuration not stated) here?
Answer: 4.84 µM (active)

Question: For `Cn1c([N+](=O)[O-])cnc1CN1CCN(CCO)CC1`, which AC50 (Cytochrome P450 2C19) is on record?
Answer: inconclusive

Question: What does the source list for `O=C(CCCCN1CCCCC1)c1ccc2c(c1)Cc1ccccc1-2`?
Answer: EC50 [2]: 1.9 µM (active); EC50 [3]: 13.6 µM (active)

Question: For `O=C(COc1ccc(Br)cc1Cl)NC1CCN(Cc2ccccc2)CC1`, which EC50 [2] is on record?
Answer: 0.165 µM (active)

Question: And the EC50 [3]?
Answer: > 60 µM (not active)

Question: With `CN(C)C(=O)c1ccc(-c2ccc3ncnc(Nc4ccc(F)cc4)c3c2)cc1` as the compound, how does the AC50 (Cytochrome P450 2C19; read-out: AC50) read?
Answer: 25.1 µM (inconclusive)

Question: With `O=C(CN1CCN(c2ccc(O)cc2)CC1)Nc1ccc(SC(F)F)cc1` as the compound, how does the AC50 [1] read?
Answer: 6.49 µM (active)

Question: With `O=S(=O)(c1cccc(-c2nnc(-c3ccc(Br)cc3)o2)c1)N1CCCCCC1` as the compound, how does the AC50 (Cytochrome P450 2C19; read-out: AC50) read?
Answer: 11.2 µM (inconclusive)

Question: With `O=C(NC1(Cc2ccccc2)CCN(CCCc2ccccc2)C1=O)c1ccccc1` (configuration not stated) as the compound, how does the AC50 (INS1) read?
Answer: 2.75 µM (active)

Question: Which results are given for `COCC(=O)N1CCC2(CCCN(c3cccc(-c4ccccc4)c3)C2)CC1`?
Answer: AC50 (Cytochrome P450 3A4): 12.6 µM (inconclusive); AC50 (Cytochrome P450 2D6): 39.8 µM (inconclusive)

Question: For `CCNS(=O)(=O)c1ccc(NC(=O)c2cc(C(F)(F)F)nn2C)cc1`, which AC50 (Cytochrome P450 3A4) is on record?
Answer: 6.31 µM (inconclusive)

Question: With `CCC(=O)Nc1nc(C)c(-c2csc(Nc3cccc(O)c3)n2)s1` as the compound, how does the AC50 [1] read?
Answer: 0.188 µM (active)

Question: For `COc1cc(Br)c(/C=C/c2ccc3cccc(O)c3n2)cc1OC`, which EC50 [2] is on record?
Answer: 0.831 µM (active)

Question: What about the EC50 [3] of the same compound?
Answer: > 60 µM (not active)

Question: For `CN(CC(=O)Nc1ccc(S(=O)(=O)N2CCCC2)cc1)Cc1ccc(Cl)cc1`, which EC50 [2] is on record?
Answer: 1.58 µM (active)

Question: What about the EC50 [3] of the same compound?
Answer: > 60 µM (not active)

Question: With `Cc1nc2cnc(N3CCNCC3)nc2n(Cc2cccs2)c1=O` as the compound, how does the AC50 (Cytochrome P450 2D6) read?
Answer: 12.6 µM (inconclusive)

Question: For `COc1ncc2nc(-c3ccccc3)c(=O)n(C[C@H]3CCCO3)c2n1`, which AC50 (Cytochrome P450 3A4) is on record?
Answer: 25.1 µM (inconclusive)

Question: For `O=C(NC(=S)NCc1cccnc1)c1cccc2ccccc12`, which EC50 [2] is on record?
Answer: 0.505 µM (active)

Question: And the EC50 [3]?
Answer: > 60 µM (not active)

Question: For `CN(C)c1ccc(/C=C(\C#N)C(=O)OCC(=O)N(C)C2CCS(=O)(=O)C2)cc1` (configuration not stated), which AC50 (INS1) is on record?
Answer: > 260 µM (inactive)

Question: For `Nc1ccc(N2CCN(Cc3ccccc3Cl)CC2)c(Cl)c1`, which AC50 [1] is on record?
Answer: 2.45 µM (active)

Question: With `Clc1ccc(Cl)c(OCCCCN2CCNCC2)c1` as the compound, how does the EC50 [2] read?
Answer: 3.42 µM (active)

Question: And the AC50 [1]?
Answer: 2.41 µM (active)

Question: And the EC50 [3]?
Answer: 9.24 µM (active)

Question: Which AC50 (Cytochrome P450 3A4) does the source give for `COc1cccc(C(=O)N(C)c2nnc(-c3ccncc3)s2)c1` here?
Answer: 6.31 µM (inconclusive)

Question: For `CSc1nc2ccccc2cc1/C=C(\C#N)c1ccc(Cl)cc1Cl`, which AC50 (Cytochrome P450 2D6) is on record?
Answer: 1.58 µM (inconclusive)

Question: Which results are given for `O=C(NCCCN1CCCC1=O)c1ccc([N+](=O)[O-])s1`?
Answer: EC50 [2]: 0.534 µM (active); EC50 [3]: > 30 µM (not active)

Question: For `O=C(OCc1nc2ccccc2s1)c1ccc(Br)s1`, which AC50 (Cytochrome P450 3A4) is on record?
Answer: 25.1 µM (inconclusive)

Question: Which EC50 [2] does the source give for `COc1cccc(NC(=O)Nc2ccc(C)c(Cl)c2)c1` here?
Answer: 2.41 µM (active)

Question: And the EC50 [3]?
Answer: > 30 µM (not active)

Question: With `CCC(CO)Oc1cc(NCc2ccc(C)c(C)c2)c2ncn(C(C)C)c2c1` (configuration not stated) as the compound, how does the AC50 (INS1) read?
Answer: 5.86 µM (active)

Question: Which AC50 [1] does the source give for `CCC(CO)Oc1cc(NCc2ccc(Cl)cc2Cl)c2ncn(C(C)C)c2c1` (configuration not stated) here?
Answer: 8.14 µM (active)

Question: With `CCc1ccc(-c2csc(NC(=O)C3CCCO3)c2C(=O)OC(C)C)cc1` (configuration not stated) as the compound, how does the AC50 (Cytochrome P450 3A4) read?
Answer: 28.2 µM (inconclusive)

Question: For `CC(=O)c1ccc(NC(=O)C(Cc2ccccc2)NC(=O)c2ccco2)cc1` (configuration not stated), which AC50 (Cytochrome P450 3A4) is on record?
Answer: 28.2 µM (inconclusive)

Question: With `C=C[C@]1(C)C[C@H](OC(=O)CO)[C@]2(C)C3C(=O)CC[C@]3(CC[C@H]2C)[C@H](C)[C@H]1O` (some centres not stated) as the compound, how does the AC50 (Cytochrome P450 3A4) read?
Answer: 3.16 µM (inconclusive)

Question: Which results are given for `Cc1[nH]n(C(C)(C)C)c(=O)c1Sc1ccc(Cl)cc1`?
Answer: EC50 [2]: 16.3 µM (active); EC50 [3]: > 60 µM (not active)

Question: For `O=C(Cn1cnc([N+](=O)[O-])n1)N/N=C/c1ccc2ccccc2c1`, which EC50 [2] is on record?
Answer: 0.333 µM (active)

Question: What about the EC50 [3] of the same compound?
Answer: > 60 µM (not active)

Question: For `C=CCc1cccc(/C=N/NC(=O)c2ccccc2OC)c1O`, which EC50 [2] is on record?
Answer: 2.2 µM (active)

Question: What about the AC50 (INS1) of the same compound?
Answer: 3.06 µM (active)

Question: What about the EC50 [3] of the same compound?
Answer: > 60 µM (not active)

Question: For `C/C(Cn1cnc([N+](=O)[O-])n1)=N/NC(=O)COc1ccccc1Cl`, which EC50 [2] is on record?
Answer: 0.154 µM (active)

Question: What about the EC50 [3] of the same compound?
Answer: > 60 µM (not active)

Question: With `Cc1ccc(/C=N/NC(=O)CNC(=O)COc2ccccc2)o1` as the compound, how does the AC50 [1] read?
Answer: > 195 µM (inactive)

Question: Which AC50 (INS1) does the source give for `CC(=O)c1ccc(OCc2cc(C(=O)N3CCCCC3c3cccnc3)no2)cc1` (configuration not stated) here?
Answer: 14.3 µM (active)

Question: Which AC50 (Cytochrome P450 2C19) does the source give for `COc1ccccc1N1CCNCC1` here?
Answer: inconclusive

Question: With `O=C(O)Cc1c[nH]cn1` [IMIDAZOLE ACETIC ACID] as the compound, how does the AC50 (Cytochrome P450 3A4) read?
Answer: 31.6 µM (inconclusive)
